Experimental data as given in patent US20030186315A1, “ADMINISTRATION OF AN AGENT WHICH DECREASES PROCESSING OF AMYLOID PRECURSOR PROTEIN” (priority 1999, published 2003).

Legend:
[1] = test system: human kidney 293 cells stably transfected with APPsw cDNA; conditions: non-neuronal 293 cells expressing APPsw; cited from earlier work
NT2N cells = experiment: Indirect immunofluorescence microscopy of cell surface distribution of SFV-expressed APP695 in NT2N cells; assay type: cell-based, human; conditions: SFV-infected NT2N cells, 20 μg/ml BFA after infection
Protocol: Since BFA treatment results in retention of all newly synthesized proteins in the ER, additional experiments were conducted to confirm that the generation of Aβ42 in the ER was not due to retention of newly synthesized proteases not being delivered to their proper site of action. Accordingly, an ER-retention signal was placed in APP695 in which the third and fourth amino acids from the C-terminus were changed to lysine (APP695ΔKK) . This lysine motif is sufficient to retain heterologous transmembrane proteins in the ER and intermediate compartment. In these experiments, recombinant Semliki Forest virus (SFV) vectors to express APP695ΔKK. Previous studies have shown that despite high levels of SFV-mediated APP expression, SFV infected NT2N cells display a high degree of fidelity in processing APP (Wertkin et al. 1993 Proc. Natl. Acad. Sci. USA 90:9513-9517; Turner et al. 1996 J. Biol. Chem. 271:8966-8970). […] To determine if APP695ΔKK was in fact retained in the ER, indirect immunofluorescence microscopy was used to monitor both intracellular and cell surface distribution of SFV-expressed APP695 and APP695ΔKK. While intracellular levels of APP695 and APP695ΔKK appeared similar, only APP695 was expressed on the cell surface. […]

NT2N neurons [2] = experiment: ELISA distinguishing Aβ40 and Aβ42 in cell lysates and medium of BFA-treated NT2N neurons; assay type: cell-based, human
Protocol: Cell lysates and medium from the cells were then analyzed using an ELISA system which quantitatively distinguishes between Aβ40 and Aβ42 to ascertain whether alteration of Aβ levels by BFA was the result of altered levels of Aβ40, Aβ42 or both. Suzuki et al. 1994 Science 264:1336-1340. Results from the ELISA correlated with the immunoprecipitation data in that BFA abolished secretion of Aβ into the medium and reduced overall expression of intracellular Aβ by approximately 60%. However, it was the complete loss of […] that accounted for this decrease. […] Thus, γ-secretases appear to be active in the endoplasmic reticulum, but only to yield Aβ42. Further, it is believed that Aβ42 is preferentially generated in the ER while Aβ40, is generated in more distal components of the exocytic pathway.
NT2N neurons were pretreated with 20 Ag/ml of BFA for 1 hour before the addition of 0.5 mCi/ml of [^35S] methionine to the cultures for 16 hours in the absence or presence of BFA. The cell lysates and media were processed for immunoprecipitation as described in Example 3. For deglycosylation of APPG, the immunoprecipitates containing APPβ were washed twice in sodium phosphate buffer (20 mmol/l, pH 7.2) and boiled for 2 minutes in 10 μl of 1% SDS. The samples were then boiled for an additional 2 minutes after adding 90 μl of the sodium phosphate buffer with sodium azide (10 mmol/l), EDTA (50 mmol/l), and n-Octylglucoside (0.5% w/v). After this denaturation step, deglycosylation was initiated by the addition of 2 mU Neuraminidase (Arthrobacter; Boehringer Mannheim, Indianapolis, Ind.), 2.5 mU 0-Glycosidase (Boehringer Mannheim, Indianapolis, Ind.), and 0.4 U N-Glycosidase F (Boehringer Mannheim, Indianapolis, IN). The samples were then incubated at 37° C. for 18 hours and deglycosylated APPβ was run on 7.5% SDS-PAGE gels as described in Example 2.

NT2N neurons [3] = experiment: Brefeldin A treatment of [35S]methionine-labeled NT2N neurons, immunoprecipitation of APP fragments from cell lysates and media; assay type: cell-based, human
Excerpt: The detection of APPβ in the cell lysate of NT2N neurons, together with the presence of Aβ40 and Aβ42 (Turner et al. 1996 J. Biol. Chem. 271:8966-8970), establish that an intracellular β-secretase pathway(s) exists in these cells. At present, no other cell line has been reported to produce detectable levels of intracellular APPβ from endogenous or over-expressed wild-type APP (Seubert et al. 1993 Nature 361:260-263; Haass et al. 1995a Nature Med. 1:1291-1296; Thinakaran et al. 1996b J. Biol. Chem. 271:9390-9397). […] In the absence of BFA, APPFL, APPβ, and Aβ were recovered from the cell lysates while APPα, APPβ, and Aβ were detected in the media of NT2N neurons.
Cultured NT2N neurons were starved in methionine-free DMEM HG (Life Technologies, Inc., Gaithersburg, Md.) for 30 minutes prior to incubation in fresh methionine-free DMEM HG containing 0.5 mCi/ml of [^35S]methionine (sp act. 1000 Ci/mmol; NEN-DuPont, Boston, Mass.). […] Quantitation of bands in the autoradiogram was performed using the ImageQuant software (Molecular Dynamics Inc. Sunnyvale, Calif.) in accordance with procedures described by Turner et al. 1996 J. Biol. Chem. 271:8966-8970. Radiolabeled proteins in SDS-PAGE gels and nitrocellulose replicas were also analyzed by standard autoradiographic methods. […]

For `C[C@H]1CCC/C=C/[C@@H]2C[C@H](O)C[C@H]2[C@H](O)/C=C/C(=O)O1` [BFA, Brefeldin A], the “APPβsw and Aβ production” value [1] is given as “completely eliminates”, the “surface expression of APP695” value (NT2N cells) is given as “blocked” and the “intracellular Aβ40” value (NT2N neurons [2]; cell lysate) is given as “complete loss”. For the same compound, the “intracellular Aβ42” value (NT2N neurons [2]; cell lysate) was “largely unaffected”, the “reduction of overall expression of intracellular Aβ” value (NT2N neurons [2]; cell lysate) was “approximately 60%” and the “secretion of Aβ into the medium” value (NT2N neurons [2]; medium) was “abolished”. The “secretion of APPα, APPβ, and Aβ into the medium” value (NT2N neurons [3]; 20 μg/ml BFA, immunoprecipitation of media) was “completely abolished” and the “electrophoretic mobility of APPβ from BFA-treated versus untreated cells” value (NT2N neurons [3]; SDS-PAGE of immunoprecipitated APPβ) was “migrated more quickly”.
